Measured values as given in US12577536B2, “Method for isolating ureteric bud tip cells” (KYOTO UNIVERSITY, priority 2019, dated 2026).

Tests used:
Format in all cases: cell-based, human
[1] = test system: dissociated tip colony cells; assay: Collecting duct progenitor induction, 2D culture with immunostaining
Procedure: For 2D cultures, day 7 tip cell colonies detached from hydrogel were dissociated into single cells by pipetting after treatment with Accutase for 3 min at 37° C. The single cells were resuspended with Essential 6 medium containing 1 μM IWR-1 (Tocris) and 0.5 μL/cm^2 iMatrix-511 silk with or without 1 μM A83-01 and seeded at a density of 4×10^4 cells/well in 96-well plates. For 3D cultures, day 14 reconstituted iUB organoids were treated with Essential 6 medium containing 1 μM IWR-1 and 1 μM A83-01 for 14 days.
Immunostaining analysis was performed as described previously with some modifications (Mae, SI. & Ryosaka, M. et al. Biochem Biophys Res Commun. 495, 954-61 (2018)). For 2D cultures, the cells were fixed with 4% paraformaldehyde (PFA)/PBS for 20 min at 4° C. After washing with PBS twice, the cells were blocked with 18 normal donkey serum (MERCK) and 3% bovine serum albumin (BSA; Nacalai Tesque)/PBST (PBS/0.25% Triton X-100, Nacalai Tesque) for 1 h at room temperature. Primary antibodies were diluted with blocking solution at 1:500 and incubated with the samples overnight at 4° C. After washing with PBST twice, secondary antibodies diluted with blocking solution at 1:500 were incubated for 1 h at room temperature.

tip cell colonies = assay: Reconstitution of iUB organoids from tip cell colonies; conditions: organoid medium with CHIR99021
Procedure: Hydrogel was dissolved with Cell Recovery Solution (BD Biosciences) for 1 h at 4° C. to detach day 7 tip cell colonies. After washing with additional Cell Recovery Solution, the tip cell colonies were centrifuged at 500 g for 5 min at room temperature. Essential 6 medium containing 0.1 μM LDN193189, 100 ng/ml GDNF, 0.1 μM TTNPB, 200 ng/ml FGF8, 1 μM CHIR99021 or 10% Afamin/Wnt3a conditioned medium (MBL), 200 ng/ml R-spondin 1 (R&D systems), 50 ng/ml EGF, 200 ng/ml FGF1 and 10% Matrigel was applied to the tube including tip cell colonies. After pipetting gently with a wide-mouth micropipette (BMBio) not to break colonies, the suspension was distributed to low-attachment 35 mm dish (Sumitomo Bakelite) at 2 mL/dish. The medium was refreshed every 2 days. On day 4, each colony was placed onto one well of low-attachment 96-well plates in the same medium. After an additional 6 days, the tip region was separated from the reconstituted iUB organoid and treated with the same medium for 35 days.

[2] = test system: ND aggregates / iUB organoids; assay: iUB organoid induction from ND aggregates; conditions: 50 ng/ml EGF and 200 ng/ml FGF1 added together to organoid medium
Procedure: Unwanted cells were removed from the ND aggregates by pipetting (Mae, SI. & Ryosaka, M. et al. Biochem Biophys Res Commun. 495, 954-61 (2018)). The ND aggregates were treated with the same medium and factors containing 2% Matrigel for 6 days to constitute iUB organoids with epithelial polarity and tubular lumens. 50 ng/ml EGF (R&D Systems) and 200 ng/ml FGF1 (R&D Systems) were added to enhance budding. The tips were mechanically separated from iUB organoids and cultured in the same medium and factors containing 2% Matrigel for 6 to 14 days to reconstitute branching iUB organoids. The tips separated from the reconstituted iUB organoids were treated with the same medium and factors to repeatedly reconstitute iUB organoids.

Q: How did the “induction rates of AQP2-expressing cells” value ([1]; 1 μM A83-01 in combination with 1 μM IWR-1, day 7 of 2D culture) turn out when `Cc1cccc(-c2nn(C(=S)Nc3ccccc3)cc2-c2ccnc3ccccc23)n1` [A83-01, 3-(6-Methyl-2-pyridinyl)-N-phenyl-4-(4-quinolinyl)-1H-pyrazole-1-carbothioamide] was run?
A: improved the induction rates of these cells

Q: Which “reconstitution of iUB organoids from tip cell colonies” value (tip cell colonies) does the source give for `Cc1c[nH]c(-c2cnc(NCCNc3ccc(C#N)cn3)nc2-c2ccc(Cl)cc2Cl)n1` [CHIR99021, 6-[2-[4-(2,4-Dichlorophenyl)-5-(4-methyl-1H-imidazole-2-yl)pyrimidine-2-ylamino]ethylamino]pyridine-3-carbonitrile] here?
A: only observed with tip cell colonies derived from 585A1 iPS cells

Q: Which “differentiation into AQP2-expressing, CAII-negative cells” value ([1]; 1 μM IWR-1, day 7 of 2D culture) does the source give for `O=C(Nc1cccc2cccnc12)c1ccc(N2C(=O)[C@@H]3[C@H](C2=O)[C@@H]2C=C[C@H]3C2)cc1` [IWR-1] here?
A: facilitated the differentiation of dissociated tip colony cells into the cells expressing a collecting duct principal cell marker, Aquaporin (AQP) 2

Q: Which “budding of iUB organoids” value [2] does the source give for “EGF: protein called Epidermal Growth Factor (R&D systems) (NSDSECPLSHDGYCLHDGVCMYIEALDKYACNCVVGYIGERCQYRDLKWWELR; Epidermal growth factor; UniProt P01133 971-1023, looked up)” here?
A: promoted budding

Q: For FGF1: fibroblast growth factor, which “budding of iUB organoids” value [2] is on record?
A: promoted budding
